Data as given in ChEMBL document CHEMBL1201862, “PubChem BioAssay data set” (2004).
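Growth conditions: 96-well plates. Treatment: test compound, 48 hours, 5 concentrations. Analysis: linear interpolation between bracketing concentrations; unreached endpoints set to highest concentration. GI50 = concentration required for 50% inhibition of growth.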 Active and inactive are the calls of the source. Cut-off read from the data, not from the text of the source: active = GI50 up to about 1.1 µM and inactive = higher.

How the values were obtained:
Test in all cases: DTP human tumour cell line panel, 48 h
[1] = system: UO-31
[2] = system: SK-MEL-5
[3] = system: A549
[4] = system: SNB-19
[5] = system: HCT-116
[6] = system: SR
[7] = system: UACC-257
[8] = system: SK-MEL-2
[9] = system: NCI-H23
[10] = system: SF-295
[11] = system: SNB-75
[12] = system: NCI-H226
[13] = system: OVCAR-8
[14] = system: HCC 2998
[15] = system: K562
[16] = system: CAKI-1

SMILES | GI50 [1] | GI50 [2] | GI50 [3] | GI50 [4] | GI50 [5] | GI50 [6] | GI50 [7] | GI50 [8] | GI50 [9] | GI50 [10] | GI50 [11] | GI50 [12] | GI50 [13] | GI50 [14] | GI50 [15] | GI50 [16]
Cc1ccc(C2(C)NC(=S)N(NC(N)=S)C2=S)cc1 (stereo unspecified) | > 100 µM (inactive) | > 100 µM (inactive) | > 100 µM (inactive) | > 100 µM (inactive) | > 100 µM (inactive) | 51.6 µM (inactive) | > 100 µM (inactive) | > 100 µM (inactive) | > 100 µM (inactive) | > 100 µM (inactive) | 25.3 µM (inactive) | > 100 µM (inactive) | > 100 µM (inactive) | > 100 µM (inactive) | 39.6 µM (inactive) | –
O=C(NO)C(=O)Nc1cc(Cl)ccc1Cl | 22 µM (inactive) | > 100 µM (inactive) | > 100 µM (inactive) | > 100 µM (inactive) | > 100 µM (inactive) | 93.5 µM (inactive) | > 100 µM (inactive) | > 100 µM (inactive) | > 100 µM (inactive) | > 100 µM (inactive) | > 100 µM (inactive) | > 100 µM (inactive) | > 100 µM (inactive) | 78 µM (inactive) | 63.8 µM (inactive) | 23.2 µM (inactive)
CCSC(=O)C1(C)OC2CCCCC2C1=O (stereo unspecified) | > 100 µM (inactive) | > 100 µM (inactive) | > 100 µM (inactive) | > 100 µM (inactive) | > 100 µM (inactive) | > 100 µM (inactive) | > 100 µM (inactive) | > 100 µM (inactive) | – | – | > 100 µM (inactive) | > 100 µM (inactive) | > 100 µM (inactive) | > 100 µM (inactive) | > 100 µM (inactive) | > 100 µM (inactive)
CCOC(=O)/C([O-])=C(\C(=O)OCC)[n+]1c(C)n(C)c2ccccc21 | > 100 µM (inactive) | > 100 µM (inactive) | > 100 µM (inactive) | > 100 µM (inactive) | > 100 µM (inactive) | – | > 100 µM (inactive) | > 100 µM (inactive) | > 100 µM (inactive) | > 100 µM (inactive) | > 100 µM (inactive) | > 100 µM (inactive) | > 100 µM (inactive) | > 100 µM (inactive) | > 100 µM (inactive) | > 100 µM (inactive)
O=C(c1nc2ccccc2nc1O)C(O)c1ccco1 (stereo unspecified) | 72.3 µM (inactive) | 64.1 µM (inactive) | > 100 µM (inactive) | > 100 µM (inactive) | > 100 µM (inactive) | – | > 100 µM (inactive) | > 100 µM (inactive) | > 100 µM (inactive) | > 100 µM (inactive) | 45.8 µM (inactive) | > 100 µM (inactive) | > 100 µM (inactive) | > 100 µM (inactive) | > 100 µM (inactive) | –
Cc1ccc(SSCCCS(=O)O)cc1 | 23.5 µM (inactive) | 30.1 µM (inactive) | 31.9 µM (inactive) | 49.7 µM (inactive) | 30.1 µM (inactive) | – | 50.2 µM (inactive) | 37.1 µM (inactive) | 39 µM (inactive) | 32.8 µM (inactive) | 21.8 µM (inactive) | – | 21.6 µM (inactive) | 60 µM (inactive) | 0.766 µM (active) | 38.7 µM (inactive)
C=CCN1C2Cc3cc(OC)c(OC)cc3C1Cc1cc(OC)c(OC)cc12 | 64 µM (inactive) | > 100 µM (inactive) | > 100 µM (inactive) | > 100 µM (inactive) | – | – | > 100 µM (inactive) | > 100 µM (inactive) | 78.9 µM (inactive) | 53.8 µM (inactive) | > 100 µM (inactive) | – | > 100 µM (inactive) | > 100 µM (inactive) | > 100 µM (inactive) | > 100 µM (inactive)
O=C(Nc1cccc2c1C(=O)c1c(NC(=O)c3ccccc3)ccc(Nc3cccc4c3C(=O)c3ccccc3C4=O)c1C2=O)c1ccccc1 | > 100 µM (inactive) | > 100 µM (inactive) | > 100 µM (inactive) | > 100 µM (inactive) | > 100 µM (inactive) | > 100 µM (inactive) | > 100 µM (inactive) | > 100 µM (inactive) | – | – | 70.3 µM (inactive) | > 100 µM (inactive) | > 100 µM (inactive) | > 100 µM (inactive) | > 100 µM (inactive) | > 100 µM (inactive)
C/C(CC(=O)Nc1ccc([N+](=O)[O-])cc1)=N/N=C(N)N | > 100 µM (inactive) | > 100 µM (inactive) | > 100 µM (inactive) | – | > 100 µM (inactive) | – | > 100 µM (inactive) | > 100 µM (inactive) | > 100 µM (inactive) | > 100 µM (inactive) | > 100 µM (inactive) | > 100 µM (inactive) | > 100 µM (inactive) | > 100 µM (inactive) | > 100 µM (inactive) | –
CCN1C(=O)C(N=[N+]=[N-])(c2ccccc2)C(=O)c2ccccc21 (stereo unspecified) | 43.7 µM (inactive) | 56.5 µM (inactive) | 55.8 µM (inactive) | > 100 µM (inactive) | 61.8 µM (inactive) | 36.3 µM (inactive) | 46.6 µM (inactive) | > 100 µM (inactive) | 57.1 µM (inactive) | 60.3 µM (inactive) | 83 µM (inactive) | 46.7 µM (inactive) | – | > 100 µM (inactive) | 39 µM (inactive) | > 100 µM (inactive)
O=C1NC2(O)c3ccccc3C(=O)C2(O)N1c1ccccc1 (stereo unspecified) | > 100 µM (inactive) | – | > 100 µM (inactive) | > 100 µM (inactive) | > 100 µM (inactive) | > 100 µM (inactive) | > 100 µM (inactive) | > 100 µM (inactive) | > 100 µM (inactive) | > 100 µM (inactive) | > 100 µM (inactive) | – | > 100 µM (inactive) | > 100 µM (inactive) | > 100 µM (inactive) | > 100 µM (inactive)
Cc1nc(-n2nc(-c3ccccc3)cc2-c2ccccc2)sc1C(=O)/C=C/c1ccc(/C=C/C(=O)c2sc(-n3nc(-c4ccccc4)cc3-c3ccccc3)nc2C)cc1 | 20.1 µM (inactive) | – | 39 µM (inactive) | 21.8 µM (inactive) | 19.8 µM (inactive) | 27.2 µM (inactive) | 21 µM (inactive) | 22.1 µM (inactive) | 19.1 µM (inactive) | 23.9 µM (inactive) | – | 26.8 µM (inactive) | 32.8 µM (inactive) | 20.1 µM (inactive) | 30.3 µM (inactive) | 22.2 µM (inactive)
CCOC(=O)CCCO | > 100 µM (inactive) | > 100 µM (inactive) | > 100 µM (inactive) | > 100 µM (inactive) | > 10 µM (inactive) | > 100 µM (inactive) | > 100 µM (inactive) | > 100 µM (inactive) | > 100 µM (inactive) | > 100 µM (inactive) | 71.3 µM (inactive) | – | > 100 µM (inactive) | > 100 µM (inactive) | > 100 µM (inactive) | –
O=C1CC(c2c[nH]c3ccccc23)C(=O)N1c1ccccc1 (stereo unspecified) | 83.6 µM (inactive) | > 100 µM (inactive) | > 100 µM (inactive) | – | > 100 µM (inactive) | – | > 100 µM (inactive) | > 100 µM (inactive) | > 100 µM (inactive) | > 100 µM (inactive) | > 100 µM (inactive) | > 100 µM (inactive) | > 100 µM (inactive) | > 100 µM (inactive) | > 100 µM (inactive) | > 100 µM (inactive)
Cn1cnc([N+](=O)[O-])c1Sc1nnc(-c2ccc(Cl)cc2)n1C | 14.6 µM (inactive) | – | 48.9 µM (inactive) | 98.2 µM (inactive) | 13.1 µM (inactive) | 7.41 µM (inactive) | 12.7 µM (inactive) | 15.5 µM (inactive) | 16.6 µM (inactive) | 50 µM (inactive) | 17.7 µM (inactive) | 21.2 µM (inactive) | 17.5 µM (inactive) | 17.9 µM (inactive) | 10.7 µM (inactive) | 15.9 µM (inactive)
NC12CC3CC(C1)CC(C(=O)O)(C3)C2 | > 100 µM (inactive) | > 100 µM (inactive) | > 100 µM (inactive) | > 100 µM (inactive) | > 100 µM (inactive) | > 100 µM (inactive) | > 100 µM (inactive) | – | > 100 µM (inactive) | > 100 µM (inactive) | > 100 µM (inactive) | – | > 100 µM (inactive) | > 100 µM (inactive) | 2.73 µM (inactive) | > 100 µM (inactive)
COc1cc([C@@H]2c3cc4c(cc3[C@@H](OC(=O)c3ccc(N)cc3)C3COC(=O)[C@@H]32)OCO4)cc(OC)c1O (stereo partly specified) | 10.2 µM (inactive) | 3.59 µM (inactive) | 5.02 µM (inactive) | 20.7 µM (inactive) | 4.45 µM (inactive) | – | 9.14 µM (inactive) | 6.32 µM (inactive) | 3.32 µM (inactive) | 4.25 µM (inactive) | 3.21 µM (inactive) | 6.97 µM (inactive) | 4.49 µM (inactive) | 12.2 µM (inactive) | 5.18 µM (inactive) | 8.47 µM (inactive)
O=C1CCC2(CCC(=O)NC2=O)C(=O)N1 | > 100 µM (inactive) | > 100 µM (inactive) | > 100 µM (inactive) | > 100 µM (inactive) | > 100 µM (inactive) | > 100 µM (inactive) | > 100 µM (inactive) | – | > 100 µM (inactive) | > 100 µM (inactive) | – | > 100 µM (inactive) | > 100 µM (inactive) | > 100 µM (inactive) | > 100 µM (inactive) | –
N#CCCN(c1ccc(-c2nnc(NC(=O)CNNC(=O)CC(=O)Nc3ccccc3)s2)cc1)S(=O)(=O)c1ccccc1 | 46.3 µM (inactive) | 52.1 µM (inactive) | 88.1 µM (inactive) | > 100 µM (inactive) | 71.1 µM (inactive) | – | > 100 µM (inactive) | > 100 µM (inactive) | 76.6 µM (inactive) | > 100 µM (inactive) | 29 µM (inactive) | 59.3 µM (inactive) | > 100 µM (inactive) | > 100 µM (inactive) | 49.2 µM (inactive) | 78 µM (inactive)
